Results published in paper PMC5642494 (Oncotarget, 2017).

Tests used:
pCTD_s2 or MCL1 = assay: Immunoblotting of CDK9-dependent biomarkers in ZR-75-1, T-47D and MCF7 cells; format: cell-based, human; details: MCF7, T-47D, ZR-75-1 cells; 24 hours; highest concentration (20 µM)
Protocol: Protein lysates were prepared from the cells and analyzed for the expression of various biomarkers by immunoblotting. The biomarkers included phosphor-Rb at serines 807/811,phosphorylation of serine 2 on the C-terminal repeat domain on RNA polymerase II (pCTD) and MCL1. Images of Western blots were cropped to denote the relevant band(s) for clarity. […] Ki-67 positive events were obtained by gating versus background signal.

ZR-75-1 xenograft tumors = assay: mRNA expression of cell cycle regulatory genes in ZR-75-1 xenograft tumors; format: in vivo, mouse; details: 50 or 75 mg/kg QDx5; Cyclin E, MCM7, CDKN2C, PTEN, AURA, CCNB1, FOXM1, RRM2, MKI67, Topo IIα
Protocol: page 4: or pHH3 facilitates quantification of the inhibition of #79654). The suspension was placed on the Qiashredder cell cycle progression since lower expression of these 2 columns (Qiagen #79654) and RNA was purified by biomarkers quantitatively correlates with the extent of following the protocol for the RNAeasy Mini Kit (Qiagen progression of cells through either S-phase (Topo IIα) or # 74104). Following the last wash, the purified RNA was M-phase (pHH3). The inhibition of CDK9 was assessed eluted using […] RNase-free water and collected in by measuring the inhibition of either MCL1 expression labeled DNase/RNase-free collection tubes. The quantity or phosphorylation of […] on the C-terminal domain of RNA was measured by spectral analysis using the repeat on RNA polymerase II (pCTD). The visualization Nanodrop Spectrophotometer (NanoDrop Products, of the signals corresponding to these biomarkers was Wilmington, DE, USA) and then placed in -80 degree […] achieved through development with the ECL SuperSignal freezer for analysis. The cDNA preparation was completed chemo-luminescence kit (Pierce) and image capture using as described in the included kit protocol using Superscript the Fuji LAS400 image capture instrument. […] Isolation and purification of RNA from tumors All samples, once quantitated, were delivered to […] […]

SMILES: CCN1CCN(Cc2ccc(Nc3ncc(F)c(-c4cc(F)c5nc(C)n(C(C)C)c5c4)n3)nc2)CC1 [abemaciclib, Abemaciclib]
- levels of pCTD_s2 or MCL1 (pCTD_s2 or MCL1): no changes were observed
- mRNA expression of cell cycle genes in tumors (ZR-75-1 xenograft tumors): suppression of the expression of several genes
